Results: patent US20070135383A1, “Phospholipase inhibitors, including multi-valent phospholipase inhibitors, and use thereof, including as lumen-localized phospholipase inhibitors” (priority 2005, published 2007)

Experiment: Bioavailability study, IV vs oral (Example 13)
Format: in vivo, male CD-1 mice
Settings: male, CD-1, mouse, plasma; oral ~30 mg/kg vs IV ~3 mg/kg
Description: Bioavailability was determined for Compound 5-24 (ILY-V-24) as follows. Generally, the bioavailability was calculated by comparing a timecourse of the concentration of the test compound in the serum of mice after an intravenous (IV) dosing, versus the timecourse of the concentration following an oral dosing of the test compound. The IV dose was ˜3 mg/kg, the oral dose was ˜30 mg/kg.
Oral Formulation. The oral formulation was prepared as follows. To sterile flask, 90 ml of sterile Milli-Q water was added. 9 ml of PEG-400 was added (final concentration of 9%). 50 ul of Tween-80 was added (final concentration of 0.05%). 0.9 g of CMC was weighed and added (final concentration of 0.9% w/v). […]
Study Design. […] On study day 0, all the animals were weighed, dosages were calculated and the animals were dosed by oral route (PO) or (IV) as outlined below in Table 5. […]
Calculations. Bioavailability was calculated as follows. Individual doses were calculated based on an average of body weights taken on the day of dosing. Serum concentrations of test compound, as well as the actual concentration of dosing solutions, were measured using 2-dimensional Mass Spectrophotometry after Liquid Chromatography (LC MS/MS). […]

## Cc1c(C(=O)C(N)=O)c2c(OCC(=O)O)cccc2n1CCCCCCCCSCCCCCCCCSCCCCCCCCn1c(C)c(C(=O)C(N)=O)c2c(OCC(=O)O)cccc21 [ILY-V-24, 2,2′-(1,1′-(8,8′-(Octane-1,8-diylbis(sulfanediyl))bis(octane-8,1-diyl))bis(3-(2-amino-2-oxoacetyl)-2-methyl-1H-indole-4,1-diyl))bis(oxy)diacetic acid]
  bioavailability: 4 to 8%
